Test results as given in ChEMBL document CHEMBL5512617, “Tackling Influenza A virus by M2 ion channel blockers: Latest progress and limitations” (Eur J Med Chem, 2024).

What was measured:
Influenza A virus [1] = assay: Antiviral activity against influenza A virus harboring wild type M2 ion channel infected in MDCK cells assessed as viral growth inhibition preincubated with cells for 30 mins followed by viral infection and measured after 72 hrs by CCK-8 assay; format: functional, organism-based
Influenza A virus [2] = format: functional, organism-based; conditions: A/WSN/33, MDCK, 48 h
Influenza A virus [3] = format: functional, organism-based, A/WSN/33; conditions: mdck
Influenza A virus [4] = format: functional, organism-based, A/WSN/33; conditions: mdck; remark: listed apart in the source
Influenza A virus [5] = format: functional, organism-based, A/WSN/33; conditions: mdck; remark: listed apart in the source
Influenza A virus [6] = format: functional, organism-based, A/WSN/33; conditions: mdck; remark: listed apart in the source
Influenza A virus [7] = format: functional, organism-based, A/WSN/33; conditions: mdck; remark: listed apart in the source
Influenza A virus [8] = format: functional, organism-based, A/WSN/33; conditions: mdck; remark: listed apart in the source
Influenza A virus [9] = format: functional, organism-based; conditions: A/WSN/33, MDCK, 48 h; remark: listed apart in the source
Influenza A virus [10] = format: functional, organism-based; conditions: A/HK/68 (H3N2), MDCK
Influenza A virus [11] = format: functional, organism-based, A/WSN/33 (H1N1); conditions: mdck

C[C@H]1[C@H](N)C[C@@H]2C[C@H]1C2(C)C
IC50 (Influenza A virus [1]; Influenza A virus, MDCK): 0.12 µM

COc1ccc(CNC23CC4CC(CC(C4)C2)C3)c(O)c1
EC50 (Influenza A virus [2]): 8.74 µM
EC50 (Influenza A virus [3]): 1.13 µM

CC1(C)[C@@H]2CC[C@@]1(C)[C@@H](CN)C2 [listing 1 of 2 here]
IC50 (Influenza A virus [1]; Influenza A virus, MDCK): 0.29 µM

CC1(C)[C@@H]2CC[C@@]1(C)[C@@H](CN)C2 [listing 2 of 2 here]
IC50 (Influenza A virus [1]; mdck): 0.49 µM

COc1ccc(CNc2ccc(C34CC5CC(CC(C5)C3)C4)cc2)c(O)c1
EC50 (Influenza A virus [4]): 17.4 µM
EC50 (Influenza A virus [5]): 48 µM
EC50 (Influenza A virus [2]): 8.04 µM
EC50 (Influenza A virus [6]): 55 µM
EC50 (Influenza A virus [7]): 22.5 µM
EC50 (Influenza A virus [3]): 0.66 µM
EC50 (Influenza A virus [8]): 21.6 µM
EC50 (Influenza A virus [9]): 0.66 µM

Cc1cc(/C(=N\O)[C@@H]2C[C@@H]3C[C@H](C2C)C3(C)C)sc1Br (stereo not given in full)
EC50 (Influenza A virus [10]): 7.11 µM
EC50 (Influenza A virus [11]): 5.97 µM

Cc1cc(/C(=N\O)[C@@H]2C[C@@H]3C[C@H](C2C)C3(C)C)sc1Cl (stereo not given in full)
EC50 (Influenza A virus [10]): 3.29 µM
EC50 (Influenza A virus [11]): 2.45 µM

CC1[C@H]2C[C@@H](C[C@H]1/C(=N/O)c1cc(Cl)c(Cl)s1)C2(C)C (stereo not given in full)
EC50 (Influenza A virus [10]): 9.44 µM
EC50 (Influenza A virus [11]): 10.2 µM

COc1ccc(CNC23CC4C5CC6CC4C(C2)C(C6)C5C3)c(O)c1
EC50 (Influenza A virus [4]): 21.2 µM
EC50 (Influenza A virus [5]): 55.8 µM
EC50 (Influenza A virus [2]): 22 µM
EC50 (Influenza A virus [6]): 47.5 µM
EC50 (Influenza A virus [7]): 38.4 µM
EC50 (Influenza A virus [3]): 0.29 µM
EC50 (Influenza A virus [8]): 17.3 µM
EC50 (Influenza A virus [9]): 0.29 µM

CC(N)[C@H]1C[C@H]2CC[C@]1(C)C2(C)C (stereo not given in full)
IC50 (Influenza A virus [1]; Influenza A virus, MDCK): 0.1 µM

Cc1cc(/C(=N\O)[C@@H]2C[C@@H]3C[C@H](C2C)C3(C)C)sc1C (stereo not given in full)
EC50 (Influenza A virus [10]): 4.84 µM
EC50 (Influenza A virus [11]): 30.2 µM

Cc1ccc(/C(=N\O)[C@@H]2C[C@@H]3C[C@H](C2C)C3(C)C)s1 (stereo not given in full)
EC50 (Influenza A virus [10]): 29.1 µM
EC50 (Influenza A virus [11]): 11.9 µM

COc1ccc(CNC(C)(C)C23CC4CC(CC(C4)C2)C3)c(O)c1
EC50 (Influenza A virus [4]): 19.9 µM
EC50 (Influenza A virus [5]): 19.2 µM
EC50 (Influenza A virus [2]): 20.9 µM
EC50 (Influenza A virus [7]): 43.9 µM
EC50 (Influenza A virus [3]): 0.09 µM
EC50 (Influenza A virus [8]): 1.8 µM
EC50 (Influenza A virus [9]): 0.13 µM

COc1ccc(CNC23CC4C5CC6C7CC8CC6C(C5C2)C(C8)(C3)C74)c(O)c1
EC50 (Influenza A virus [3]): 8.1 µM

CC1[C@H]2C[C@@H](C[C@H]1/C(=N/O)c1cccs1)C2(C)C (stereo not given in full)
EC50 (Influenza A virus [10]): 12.4 µM
EC50 (Influenza A virus [11]): 11.8 µM

Cc1csc(/C(=N\O)[C@@H]2C[C@@H]3C[C@H](C2C)C3(C)C)c1 (stereo not given in full)
EC50 (Influenza A virus [10]): 10.8 µM
EC50 (Influenza A virus [11]): 14.8 µM

NC12CC3CC(CC(C3)C1)C2 [AMANTADINE]
IC50 (Influenza A virus [1]; Influenza A virus, MDCK): 0.5 µM
